Experimental findings from patent publication US9428491B2, “Substituted azoles, antiviral active component, pharmaceutical composition, method for preparation and use thereof” (priority 2010, dated 2016) are described below.

In series [1] the test system is subgenomic RNA-replicon HCV (genotype 1b (gT1b), don Con1). As to the kind of experiment: Antiviral activity in Huh7 HCV subgenomic replicon cells, immunoenzymatic assay (IEA). In kind it is cell-based, hepatitis C virus. Conditions: Huh7 cells with HCV gT1b replicon, 3 days incubation. On the procedure:
Antiviral activity of substituted azoles of the general formula 1 was determined in the human hepatoma cell line Huh7, comprising subgenomic RNA-replicon HCV (genotype 1b (gT1b), don Con1). A version of immumoenzymatic assay (IEA) on viral protein NS5A in 96-well plate was used as an experimental method. Cytotoxicity of the compounds was estimated in parallel regime. Cells Huh7 were seeded in 96-well plate (7.5×10^3 cells to each well in 100 μl of culture medium). Solutions of the tested compounds in DMEM medium {DMEM) 1×; Source: Cellgro; Catalogue: 10-013-CV} were prepared immediately before use. Eleven serial three fold dilutions with variation of concentrations from 20 nM to 0.2 pM were prepared. In 4 hours after seeding, serial dilutions of the compounds were added to the cells (100 μl to each well). Final concentration of tested compounds was varied from 10 nM to 0.1 pM, and DMSO—0.5%. If it was necessary, higher concentrations of the disclosed azoles were investigated. Each dilution of the compound was tested on two identical wells. Then the cells were incubated for three days at 37° C./5% CO2 and fixed by addition of acetone/methanol (1:1) mixture in amount of 250 μl/well. In 1 min the cells were washed 3 times with PBS (Phosphate Buffered Saline) solution. Then the cells were blocked by addition of 10% fetal calf serum in PBS solution in amount of 150 μl/well for 1 h at room temperature. Then, the cells were incubated with mouse monoclonal antibodies to cor-antigen HCV, don C7-50 (Source: Affinity BioReagents; Catalogue: MA1-080) (100 μl/well, working dilution—1:500 in 10% fetal calf serum in PBS solution) for 2 h at 37° C. The cells were washed 6 times with PBS/0.05% Tween 20 solution, then, they were incubated for 1 h with goat anti-mouse immunoglobulin antibodies (conjugated with horseradish peroxidase, 100 μl/well, working dilution—1:2500 in 10% fetal calf serum in PBS solution). The cells were washed 6 times with PBS/0.05% Tween 20 solution, once with PBS solution, after that substrate (1 tablet of o-phenylenediamine (oPD)+12 ml citrate/phosphate buffer+5 μl 30% H2O2) in amount of 100 μl/well was added. The plates were kept for 30 min in the dark at room temperature. The reaction was arrested by the addition of 2N H2SO4 in amount of 100 μl/well, and optical density (wavelength 490 nm) was measured by means of multiscan plate reader Victor3 V 1420 (Perkin Elmer). IC50 values (azole concentration, lowering the level of virus RNA-replicon on 50%) for every tested azole were calculated with the help of XLfit 4 program.
(In general: Replicon systems follow genome replication, usually without infectious particles.)

Series [2] in a line: Cytotoxicity in Huh7 cells (ATPLite). In kind it is cell-based, human. Conditions: human, Huh7 cells (human hepatoma cell line), 96 h incubation, read-out: CC50, nM (gT1b). As for the experimental part: (§1) Cytotoxicity of the disclosed azoles was tested in experiments in the human hepatoma cell line Huh7. The amount of living cells was determined with the help of ATPLite kit (Perkin Elmer, Boston, USA) in accordance with manufacturer instructions. Cytotoxic action was estimated by seeding the cells into black microplate with transparent bottom (96 wells, 10^4 cells to each well). Three independent repeatings were used for each bis-azole. The tested bis-azoles were added in 18 h, after that the cells were incubated together with the compounds for 96 h. Each well was washed two times with phosphate buffered saline (0.2 ml/well) and then the cells were lysed by addition of cell buffer (50 μl/well) (all mentioned reagents are included in ATPLite kit). The microplate was incubated for 5 min on a rotating platform at 600 r/min, after that 50 μl of substrate solution (a part of ATPLite kit) was added into each well. The microplate was incubated for additional 5 min on a rotating platform at 600 r/min, kept for 10 min in the dark, after that luminescence was measured using TopCount NXT instrument (Packard, Perkin Elmer).
(§2) CC50 Value corresponding to bis-azole concentration at which 50% of cells were ruined was used as quantitative characteristic for cytotoxicity estimation. Calculation of CC50 value: for calculation of inhibition effectiveness (% Inh) the following equation was used: % Inh=[(L^pos−L^ex)/L^pos−L^neg)]*100%, where L^pos—positive control, luminescence in the wells with cells without compounds; L^neg—negative control, luminescence in the wells with medium without cells; L^ex—luminescence in wells with a compound of definite concentration. Then, CC50 values were calculated with the help of XLfit 4 program. Test results for novel azoles of the general formula 1 testify their high (nanomolar) or very high (picomolar) activity.
A general note: Cellular ATP, detected with luciferase, serves as a proxy for viable cell number.

The subject of series [3] is human hepatoma cell line Huh7. Kind of series: Cytotoxicity in Huh7 cells (ATPLite). The class given is cell-based. Particulars: 96 h incubation, read-out: CC50, nM (gT1b). As for the experimental part: as §1, §2

Counter-ions that a name gives are not always drawn. Like-named read-outs stand apart in the source and are kept apart here.

As usually defined, the IC50 is the midpoint of a concentration-inhibition curve. Lower therefore signals greater potency in that assay. The term CC50 denotes the concentration at which the toxic effect on the cells reaches its halfway point. In series [1] (Hepatitis C virus, Huh-7, 72 h), `COC(=O)N[C@H](C(=O)N1CCC[C@H]1c1ncc(C#CC#Cc2cccc3c(-c4cnc([C@@H]5CCCN5C(=O)[C@@H](NC(=O)OC)C(C)C)[nH]4)cccc23)[nH]1)C(C)C` [1.7•2HCl, Methyl [(S)-1-((S)-2-{5-[5-(4-{2-[(S)-1-((S)-2-methoxycarbonylamino-3-methyl-butyryl)-pyrrolidin-2-yl]-3H-imidazol-4-yl}-buta-1,3-diynyl)-naphthalen-1-yl]-1H-imidazol-2-yl}-pyrrolidine-1-carbonyl)-2-methyl-propyl]-carbamate dihydrochloride] returned an IC50 of 0.0036 nM. In addition, the CC50 at 96 h in series [2] was more than 10000 nM.

For “Methyl (S)-[(S)-2-(5-{4-[4-(2-{(S)-1-[(S)-2-(methoxycarbonylamino)-3-methylbutanoyl]pyrrolidin-2-yl}-3H-imidazol-4-yl)buta-1,3-diynyl]phenyl}-1H-imidazol-2-yl)pyrrolidin-1-yl]-2-oxo-1-phenylethylcarbamate dihydrochloride [1.5•2HCl]”, in series [1], the half-maximal inhibitory concentration (IC50) turned out to be 0.0082 nM. Moreover, the half-maximal cytotoxic concentration (CC50) in series [3] was more than 10000 nM.

Consider `COC(=O)N[C@H](C(=O)N1CCC[C@H]1c1ncc(C#CC#Cc2ccc(-c3cnc([C@@H]4CCCN4C(=O)[C@@H](NC(=O)OC)C(C)C)[nH]3)c3ccccc23)[nH]1)C(C)C` [1.8•2HCl, Methyl [(S)-1-((S)-2-{5-[4-(4-{2-[(S)-1-((S)-2-methoxycarbonylamino-3-methyl-butyryl)-pyrrolidin-2-yl]-3H-imidazol-4-yl}-buta-1,3-diynyl)-naphthalen-1-yl]-1H-imidazol-2-yl}-pyrrolidine-1-carbonyl)-2-methyl-propyl]-carbamate dihydrochloride], for which inhibition in series [1] (Hepatitis C virus, Huh-7, 72 h) was half-maximal at 0.0048 nM (IC50). Moreover, the CC50 at 96 h in series [2] was more than 10000 nM.

In series [1] (Hepatitis C virus, Huh-7, 72 h), `COC(=O)N[C@H](C(=O)N1CCC[C@H]1c1ncc(C#CC#Cc2ccc(-c3cnc([C@@H]4CCCN4C(=O)[C@@H](NC(=O)OC)C(C)C)[nH]3)cc2)[nH]1)C(C)C` [Compound 1.1, [(1S)-1-[[(2S)-2-[5-[4-[4-[2-[(2S)-1-[(2S)-2-[(methoxycarbonyl)amino]-3-methyl-1-oxobutyl]-2-pyrrolidinyl]-1H-imidazol-5-yl]-1,3-butadiynyl]phenyl]-1H-imidazol-2-yl]-1-pyrrolidinyl]carbonyl]-2-methylpropyl]-carbamic acid methyl ester] yielded an IC50 of 0.0031 nM. Moreover, the cytotoxic concentration (CC50) in series [3] is more than 10000 nM.

`COC(=O)N[C@H](C(=O)N1CCC[C@H]1c1ncc(C#CC#Cc2ccc(-c3cnc([C@@H]4CCCN4C(=O)[C@@H](NC(=O)OC)C(C)C)[nH]3)cc2)[nH]1)C(C)C` [1.1•2HCl, [(1S)-1-[[(2S)-2-[5-[4-[4-[2-[(2S)-1-[(2S)-2-[(Methoxycarbonyl)amino]-3-methyl-1-oxobutyl]-2-pyrrolidinyl]-1H-imidazol-5-yl]-1,3-butadiynyl]phenyl]-1H-imidazol-2-yl]-1-pyrrolidinyl]carbonyl]-2-methylpropyl]-carbamic acid methyl ester dihydrochloride] registered a concentration for half-maximal inhibition (IC50) in series [1] (dihydrochloride) of 0.0034 nM. Besides, the half-maximal cytotoxic concentration (CC50) in series [3] (dihydrochloride) was determined as 85100 nM.

For `COC(=O)N[C@H](C(=O)N1CCC[C@H]1c1ncc(C#CC#Cc2csc3c(-c4cnc([C@@H]5CCCN5C(=O)[C@@H](NC(=O)OC)C(C)C)[nH]4)csc23)[nH]1)C(C)C` [1.10•2HCl, Methyl [(S)-1-((S)-2-{5-[6-(4-{2-[(S)-1-((S)-2-Methoxycarbonylamino-3-methyl-butyryl)-pyrrolidin-2-yl]-3H-imidazol-4-yl}-buta-1,3-diynyl)-thieno[3,2-b]thiophen-3-yl]-1H-imidazol-2-yl}-pyrrolidine-1-carbonyl)-2-methyl-propyl]-carbamate dihydrochloride], half-maximal inhibition in series [1] (Hepatitis C virus, Huh-7, 72 h) (IC50) required 0.002 nM. In addition, the CC50 at 96 h in series [2] is more than 10000 nM.

For the molecule `COC(=O)N[C@H](C(=O)N1CCC[C@H]1c1nc(C#CC#Cc2ccc(-c3c[nH]c([C@@H]4CCCN4C(=O)[C@@H](NC(=O)OC)C(C)C)n3)s2)c[nH]1)C(C)C` [1.9•2HCl, [(S)-1-((S)-2-{4-[4-(5-{2-[(S)-1-((S)-2-Methoxycarbonylamino-3-methyl-butyryl)-pyrrolidin-2-yl]-1H-imidazol-4-yl}-thiophen-2-yl)-buta-1,3-diynyl]-1H-imidazol-2-yl}-pyrrolidine-1-carbonyl)-2-methyl-propyl]-carbamic acid methyl ester dihydrochloride], the IC50 in series [1] (Hepatitis C virus, Huh-7, 72 h) was found to be 0.0032 nM. Besides, the CC50 at 96 h in series [2] was more than 10000 nM.

In turn, `COC(=O)N[C@H](C(=O)N1CCC[C@H]1c1ncc(C#CC#Cc2ccc3cc(-c4cnc([C@@H]5CCCN5C(=O)[C@@H](NC(=O)OC)C(C)C)[nH]4)ccc3c2)[nH]1)C(C)C` [1.6•2HCl, Methyl [(S)-1-((S)-2-{5-[2-(4-{2-[(S)-1-((S)-2-methoxycarbonylamino-3-methyl-butyryl)-pyrrolidin-2-yl]-3H-imidazol-4-yl}-buta-1,3-diynyl)-naphthalen-6-yl]-1H-imidazol-2-yl}-pyrrolidine-1-carbonyl)-2-methyl-propyl]-carbamate dihydrochloride] gave an IC50 in series [1] (Hepatitis C virus, Huh-7, 72 h) of 0.0046 nM. Moreover, the cytotoxic concentration (CC50) at 96 h in series [2] is more than 10000 nM.

In turn, “Methyl (R)-[(S)-2-(5-{4-[4-(2-{(S)-1-[(S)-2-(methoxycarbonylamino)-3-methylbutanoyl]pyrrolidin-2-yl}-3H-imidazol-4-yl)buta-1,3-diynyl]phenyl}-1H-imidazol-2-yl)pyrrolidin-1-yl]-2-oxo-1-phenylethylcarbamate dihydrochloride [1.4•2HCl]” displayed an IC50 in series [1] of 0.0018 nM. Further, the CC50 in series [3] is more than 10000 nM.

For the molecule `COC(=O)N[C@H](C(=O)N1CCC[C@H]1c1ncc(-c2ccc(C#CC#Cc3cnc([C@@H]4CCCN4C(=O)[C@@H](NC(=O)OC)C(C)C)[nH]3)cc2)[nH]1)c1ccccc1` [1.3•2HCl, Methyl (5)-[(S)-2-(5-{4-[4-(2-{(S)-1-[(S)-2-(methoxycarbonylamino)-3-methylbutanoyl]pyrrolidin-2-yl}-3H-imidazol-4-yl)buta-1,3-diynyl]phenyl}-1H-imidazol-2-yl)pyrrolidin-1-yl]-2-oxo-1-phenylethylcarbamate dihydrochloride], the midpoint of inhibition in series [1], the IC50, lay at 0.0054 nM. Further, the CC50 in series [3] was more than 10000 nM.
